The target in this assay is Casein kinase II subunit alpha (Homo sapiens, UniProt P68400). Briefly: Inhibition of N-terminal GST-fusion protein tagged full length human CK2alpha1 (1 to 391 residues) expressed in baculovirus expression system co-expressing human His-tagged CK2beta using CK2tide as substrate incubated for 1 hrs in presence of ATP by off-chip mobility shift assay.

pIC50: −log10 of the molar value.

Sequence of Casein kinase II subunit alpha (P68400 whole entry, the tested form may be a part): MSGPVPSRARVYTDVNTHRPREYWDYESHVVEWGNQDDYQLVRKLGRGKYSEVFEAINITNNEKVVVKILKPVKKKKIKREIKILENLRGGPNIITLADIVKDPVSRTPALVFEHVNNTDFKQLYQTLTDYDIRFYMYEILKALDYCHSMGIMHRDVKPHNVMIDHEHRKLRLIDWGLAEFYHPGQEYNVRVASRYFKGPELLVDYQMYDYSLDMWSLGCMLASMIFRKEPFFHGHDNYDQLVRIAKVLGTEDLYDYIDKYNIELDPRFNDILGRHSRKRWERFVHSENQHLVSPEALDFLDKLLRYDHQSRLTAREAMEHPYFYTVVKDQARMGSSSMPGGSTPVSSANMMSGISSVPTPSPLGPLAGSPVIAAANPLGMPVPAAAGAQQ

Broadly, the pIC50 is −log10 of the IC50, conventionally taken in molar units. In the case of `NC(=O)c1nc(-c2cccc(C(=O)O)c2)nc2c1[nH]c(=O)n2-c1ccccc1`, the pIC50 is 6.00.

As for `COc1cccc(-n2c(=O)[nH]c3c(C(N)=O)nc(-c4cccc(C(=O)O)c4)nc32)c1`, the pIC50 was 5.72.

In the case of `CN(C)c1ccc(-n2c(=O)[nH]c3c(C(N)=O)nc(-c4ccc(C(=O)O)cc4)nc32)cc1`, the pIC50 is 5.37.

Regarding `NC(=O)c1nc(/C=C/C(=O)O)nc2c1[nH]c(=O)n2-c1ccccc1`, the pIC50 is 6.00.

Consider `Cc1ccc(-n2c(=O)[nH]c3c(C(N)=O)nc(-c4cccc(C(=O)O)c4)nc32)cc1`, for which the pIC50 is 6.21.

As to `N#Cc1ccc(-n2c(=O)[nH]c3c(C(N)=O)nc(-c4ccc(C(=O)O)cc4)nc32)cc1`, the negative-log IC50 (pIC50) is < 4.52.

For `NC(=O)c1nc(-c2cccc(C(=O)O)c2)nc2c1[nH]c(=O)n2-c1ccc([N+](=O)[O-])cc1`, the pIC50 was 6.42.

Regarding `NC(=O)c1nc(CC(=O)O)nc2c1[nH]c(=O)n2-c1ccccc1`, the pIC50 is < 4.52.

As for `NC(=O)c1nc(C(=O)O)nc2c1[nH]c(=O)n2-c1ccccc1`, the pIC50 was < 4.52.

As to `N#Cc1ccc(-n2c(=O)[nH]c3c(C(N)=O)nc(-c4cccc(C(=O)O)c4)nc32)cc1`, the pIC50 was 6.40.

For `NC(=O)c1nc(-c2ccc(C(=O)O)cc2)nc2c1[nH]c(=O)n2-c1ccc([N+](=O)[O-])cc1`, the pIC50 is < 4.52.

Turning to `Cc1ccc(-n2c(=O)[nH]c3c(C(N)=O)nc(-c4ccc(C(=O)O)cc4)nc32)cc1`, the pIC50 is 4.96.

Regarding `COc1ccc(-n2c(=O)[nH]c3c(C(N)=O)nc(-c4cccc(C(=O)O)c4)nc32)cc1`, the pIC50 is 5.59.

In the case of `NC(=O)c1nc(CCC(=O)O)nc2c1[nH]c(=O)n2-c1ccccc1`, the pIC50 is 4.82.

Take `NC(=O)c1nc(-c2cccc(C(=O)O)c2)nc2c1[nH]c(=O)n2-c1ccc(F)cc1`: the pIC50 is 6.74.

For the compound `NC(=O)c1nc(CCCC(=O)O)nc2c1[nH]c(=O)n2-c1ccccc1`, the pIC50 was < 4.52.

Take `NC(=O)c1nc(-c2ccc(C(=O)O)cc2)nc2c1[nH]c(=O)n2-c1ccc(F)cc1`: the pIC50 was < 4.52.

Regarding `NC(=O)c1nc(-c2cccc(C(=O)O)c2)nc2c1[nH]c(=O)n2-c1ccc(Cl)cc1`, the pIC50 is 5.27.

Consider `COc1cccc(-n2c(=O)[nH]c3c(C(N)=O)nc(-c4ccc(C(=O)O)cc4)nc32)c1`, for which the pIC50 was 4.74.

As to `NC(=O)c1nc(-c2ccc(C(=O)O)cc2)nc2c1[nH]c(=O)n2-c1ccccc1`, the pIC50 was 4.85.

Take `COc1ccc(-n2c(=O)[nH]c3c(C(N)=O)nc(-c4ccc(C(=O)O)cc4)nc32)cc1`: the pIC50 is 5.03.

Regarding `NC(=O)c1nc(-c2ccc(C(=O)O)cc2)nc2c1[nH]c(=O)n2-c1ccc(Cl)cc1`, the pIC50 was < 4.52.

The values above are taken from ChEMBL document CHEMBL5385963, “Enhanced inhibitory activity of compounds containing purine scaffolds compared to protein kinase CK2α considering crystalline water” (RSC Med Chem, 2024).
